± gives the standard deviation of the reports.
Point of comparison: *c1ccc(Oc2ccc(C(=O)c3cccc(C(=O)c4ccc(Oc5ccc(-n6c(=O)c7cc8c(=O)n(*)c(=O)c8cc7c6=O)cc5C(F)(F)F)cc4)n3)cc2)c(C(F)(F)F)c1 (repeat unit), glass transition temperature 227.10 °C. Against it:
- *Oc1ccc2cc(OC(=O)c3ccc(Oc4ccc(C(*)=O)cc4)cc3)ccc2c1 (repeat unit) — lower, 145.00 °C
- *CCCCCC(=O)Oc1ccc(OC(=O)CCCCCn2c(=O)c3cc4c(=O)n(*)c(=O)c4cc3c2=O)c(Cl)c1 (repeat unit) — lower, 87.00 °C
- *C(=O)c1ccc2c(c1)C(=O)N(c1ccc3c(c1)Cc1cc(N4C(=O)c5ccc(*)cc5C4=O)ccc1-3)C2=O (repeat unit) — higher, 341.50 °C
- *C(*)C(=O)OC(C)C (repeat unit) — lower, 70.00 °C
- *CCCCCCOC(=O)c1ccc(C(=O)O*)cc1 (repeat unit) — lower, 13.00 °C
- *CCCCCCCCCCOC(=O)c1ccc(-c2ccc(-c3ccc(C(=O)O*)cc3)cc2)cc1 (repeat unit) — lower, 50.00 °C
- *c1ccc(Oc2ccccc2Oc2ccc(N3C(=O)c4ccc(-c5ccc6c(c5)C(=O)N(*)C6=O)cc4C3=O)cc2)cc1 (repeat unit) — higher, 241.00 °C
- *c1ccc(Cc2ccc(-n3c(=O)c4cc5c(=O)n(*)c(=O)c5cc4c3=O)c(C(C)(C)C)c2)cc1C(C)(C)C (repeat unit) — lower, 217.00 °C
- *Oc1ccc(Oc2ccc(C(=O)c3ccc(*)cc3)cc2)cc1-c1ccc(Oc2ccccc2)cc1 (repeat unit) — lower, 146.00 °C
- *c1ccc2cc(-c3nc4ccc(-c5ccc6nc(*)[nH]c6c5)cc4[nH]3)ccc2c1 (repeat unit) — higher, 403.00 °C
- *c1ccc(Oc2ccc(-c3nc4cc5sc(*)nc5cc4s3)cc2)cc1 (repeat unit) — higher, 350.00 °C
- *c1cccc(P(=O)(c2ccccc2)c2cccc(N3C(=O)c4ccc(NC(=O)OCCOc5ccc(P(=O)(c6ccccc6)c6ccc(OCCOC(=O)Nc7ccc8c(c7)C(=O)N(*)C8=O)cc6)cc5)cc4C3=O)c2)c1 (repeat unit) — lower, 218.00 °C
- *Oc1ccc(Oc2ccc(P(=O)(c3ccccc3)c3ccc(Oc4ccc(Oc5cccc(*)n5)cc4)cc3)cc2)cc1 (repeat unit) — lower, 164.00 °C
- *CC(*)CC (repeat unit) [Poly(butylene)] — lower, -36.6 ± 12 °C
- */C=C(/*)C(C)(C)C (repeat unit) — lower, 200.00 °C
- *CCN(CCN1C(=O)c2ccc(C(c3ccc4c(c3)C(=O)N(*)C4=O)(C(F)(F)F)C(F)(F)F)cc2C1=O)c1ccc(/N=N/c2ccc([N+](=O)[O-])cc2C)cc1 (repeat unit) — lower, 205.00 °C
- *Oc1ccc(C2(c3ccc(Oc4ccc(C(=O)c5ccc(*)cc5)cc4)cc3)CCC3CCCCC3C2)cc1 (repeat unit) — lower, 214.00 °C
- *O[Si](C)(C)O[Si](C)(C)O[Si](C)(C)O[Si](C)(C)O[Si](C)(C)C#Cc1ccc(C#C[Si](*)(C)C)cc1 (repeat unit) — lower, 78.00 °C
- *CC#C/C(C#CCOC(=O)CCCCCCCCC(=O)O*)=C\c1ccc(C#Cc2ccc([N+](=O)[O-])cc2)cc1 (repeat unit) — lower, 60.00 °C
- *CC(OCC(C)C)C(C(=O)OC)C(*)C(=O)OC (repeat unit) — lower, 44.50 °C
- *Nc1ccc(NC(=O)c2ccc(C(=O)c3ccc(C(*)=O)c(C(=O)O)c3)cc2C(=O)O)cc1 (repeat unit) — higher, 317.00 °C
- *CC1CC(COC(=O)c2ccc(C(=O)O*)cc2)CC(C(C)(C)C)C1 (repeat unit) — lower, 118.00 °C
- *Oc1c(Cl)cc(C(c2cc(Cl)c(OC(*)=O)c(Cl)c2)C2CC3CCC2C3)cc1Cl (repeat unit) — higher, 270.00 °C
- *C([2H])([2H])C(*)([2H])c1c([2H])c([2H])c([2H])c([2H])c1[2H] (repeat unit) — lower, 97.00 °C
- *Oc1ccc(CC(NC(=O)CCc2ccc(OC(=O)CCCCCCC(*)=O)cc2)C(=O)OCCOCCOCC)cc1 (repeat unit) — lower, 6.00 °C
- *c1ccc(-c2sc(-c3cc(SCCCC)c(*)s3)cc2SCCCC)cc1 (repeat unit) — lower, 129.00 °C
- *Nc1cc(NC(=O)c2cc(OCCCN(C)c3ccc(/N=N/c4ccc(S(C)(=O)=O)cc4)cc3)cc(C(*)=O)c2)cc(C(=O)OCCCN(C)c2ccc(/N=N/c3ccc(S(C)(=O)=O)cc3)cc2)c1 (repeat unit) — lower, 168.00 °C
- *CCOC(=O)c1ccc(C2(C)CC(C)(C)c3ccc(C(=O)O*)cc32)cc1 (repeat unit) — lower, 154.00 °C
- *CCCCCCCCCCSSS* (repeat unit) — lower, -70.00 °C
- *Nc1cccc(C#Cc2ccc(NC(=O)c3cccc(C(*)=O)c3)cc2)c1 (repeat unit) — higher, 268.00 °C
- */C=C/c1ccc(*)c(OCc2cc(OCc3cc(OCCC(C)CCCC(C)C)cc(OCCC(C)CCCC(C)C)c3)cc(OCc3cc(OCC(CC)CCCC)cc(OCC(CC)CCCC)c3)c2)c1 (repeat unit) — lower, 223.00 °C
- *Oc1ccccc1C(=O)OC(=O)c1ccccc1OC(=O)CCCCCC(*)=O (repeat unit) — lower, 40.00 °C
- *Nc1ccc(C2(c3ccc(NC(=O)c4cc(C(*)=O)cc(C(C)(C)C)c4)cc3)c3ccccc3-c3ccccc32)cc1 (repeat unit) — higher, 284.00 °C
- *CC(*)(C)C(=O)OCCO[Si](C)(C)C (repeat unit) — lower, 89.00 °C
- *c1ccc(Oc2ccc(Sc3ccc(Oc4ccc(-c5ccc(*)s5)cc4C(F)(F)F)cc3)cc2)c(C(F)(F)F)c1 (repeat unit) — lower, 142.00 °C
- *Oc1ccc(CC(NC(=O)Cc2ccc(OC(=O)CC(C)CCC(*)=O)cc2)C(=O)OCC)cc1 (repeat unit) — lower, 63.00 °C
- *Oc1ccc(-c2ccc(OC(=O)c3ccc(C(=O)c4ccc(C(*)=O)cc4)cc3)c(-c3ccccc3)c2)cc1-c1ccccc1 (repeat unit) — lower, 184.50 °C
- *CC(CC)O* (repeat unit) — lower, -71.50 °C
- *CCCC(*)(C)CC (repeat unit) — lower, -23.00 °C
- *C(=O)c1ccc2c(c1)C(=O)N(c1cccc(Nc3nc(Nc4cccc(N5C(=O)c6ccc(*)cc6C5=O)c4)nc(N(c4ccccc4)c4ccccc4)n3)c1)C2=O (repeat unit) — higher, 290.00 °C
- *c1c(C)cc(C)c(N2C(=O)c3ccc(Oc4ccc(Oc5ccc6c(c5)C(=O)N(*)C6=O)cc4)cc3C2=O)c1C (repeat unit) — higher, 345.00 °C
- *c1ccc(-c2nc3cc(C(=O)c4ccc5nc(-c6ccccc6)c(-c6ccc(-n7c(=O)c8cc9c(=O)n(*)c(=O)c9cc8c7=O)cc6)nc5c4)ccc3nc2-c2ccccc2)cc1 (repeat unit) — higher, 240.00 °C
- *O[Si](C)(C)O[Si](C)(C)c1ccc([Si](*)(C)C)cc1 (repeat unit) — lower, -62.50 °C
- *c1ccc2c(c1)C(=O)N(c1cccc(P(=O)(c3ccc(C(F)(F)F)cc3)c3cccc(N4C(=O)c5ccc(C(*)(C(F)(F)F)C(F)(F)F)cc5C4=O)c3)c1)C2=O (repeat unit) — higher, 260.00 °C
- *C(=O)c1ccc2c(c1)C(=O)N(c1cccc(C(=O)N(C)c3ccc(N4C(=O)c5ccc(*)cc5C4=O)cc3)c1)C2=O (repeat unit) — higher, 260.50 °C
- *CC(*)c1ccc(C(=O)N2CCCCC2)cc1 (repeat unit) — lower, 114.00 °C
- *COC(=O)Nc1ccc(Cc2ccc(NC(=O)OCc3cocc3*)cc2)cc1 (repeat unit) — lower, 45.00 °C
- *Oc1ccc(CC(NC(=O)CCc2ccc(OC(=O)CCCC(*)=O)cc2)C(=O)OCc2ccccc2)cc1 (repeat unit) — lower, 66.00 °C
- *CC(*)(C)C(=O)OCCC[Si]12O[Si]3(CC(C)C)O[Si]4(CC(C)C)O[Si](CC(C)C)(O1)O[Si]1(CC(C)C)O[Si](CC(C)C)(O2)O[Si](CC(C)C)(O3)O[Si](CC(C)C)(O4)O1 (repeat unit) — lower, 85.00 °C
- *CC(*)(C)C(=O)OC(COc1cc2ccccc2c2ccccc12)COc1cc2ccccc2c2ccccc12 (repeat unit) — lower, 112.00 °C
- *CC(*)c1ccc(C([Si](C)(C)C)[Si](C)(C)C)cc1 (repeat unit) — lower, 156.00 °C
- *C(=O)c1ccc2c(c1)C(=O)N(c1cccc(OCCOc3cccc(N4C(=O)c5ccc(*)cc5C4=O)c3)c1)C2=O (repeat unit) — lower, 191.00 °C
- *c1cccc(N2C(=O)c3ccc(-c4ccc5c(c4)C(=O)N(*)C5=O)cc3C2=O)c1 (repeat unit) — higher, 333.2 ± 39 °C
- *CCCCCCCCCCC(=O)Nc1ccc(Oc2ccc(NC(=O)CCCCCCCCCCN3C(=O)c4ccc(C(=O)c5ccc6c(c5)C(=O)N(*)C6=O)cc4C3=O)cc2)cc1 (repeat unit) — lower, 132.00 °C
- *O[Si](C)(C)CC(C)(C)COC(=O)c1cccc(C(=O)OCC(C)(C)C[Si](*)(C)C)c1 (repeat unit) — lower, -52.00 °C
- *c1ccc(C(=O)Oc2ccc(OC(=O)c3ccc(N4C(=O)CC(SCCOCCSC5CC(=O)N(*)C5=O)C4=O)cc3)cc2)cc1 (repeat unit) — lower, 166.00 °C
- *CC(*)c1ccc(CC)cc1 (repeat unit) — lower, 71.40 °C
- *Oc1ccc(OC(=O)c2cccc(C(*)=O)c2)cc1 (repeat unit) — lower, 186.00 °C
- *CCCCCOC(=O)c1ccccc1C(=O)[O][Cd][O]C(=O)c1ccccc1C(=O)OCCCCCOC(=O)Nc1ccc(C)c(NC(=O)O*)c1 (repeat unit) — lower, 2.30 °C
- *Oc1ccc(C(=O)NNC(=O)c2ccc(C(=O)NNC(=O)c3ccc(OC(=O)c4cccc(C(*)=O)c4)cc3)cc2Oc2ccccc2)cc1 (repeat unit) — lower, 160.00 °C
- */C(C#N)=C/c1cc(OCC(CC)CCCC)c(/C=C(\C#N)c2ccc3c4ccc(*)cc4n(CC(CC)CCCC)c3c2)cc1OCC(CC)CCCC (repeat unit) — lower, 72.00 °C
- *CCOC(=O)NC1CCC(CC2CCC(NC(=O)OCCOc3ccc(C4(c5ccc(O*)cc5)c5ccccc5-c5ccccc54)cc3)CC2)CC1 (repeat unit) — lower, 140.00 °C
- *CC(O)COc1ccc(C(C)(C)c2ccc(OCC(O)COc3ccc(S(=O)(=O)c4ccc(O*)cc4)cc3)cc2)cc1 (repeat unit) — lower, 140.00 °C
